Results as given in US20200140812A1, “NOVEL METHODS FOR THE GENERATION AND USE OF HUMAN INDUCED NEURAL BORDER STEM CELLS” (HI-STEM gGmbH, priority 2017, published 2020).

Legend:
P2RX3-receptors = target: T1, P2RX3-receptors (Homo sapiens, UniProt P56373); experiment: Calcium flux measurements (Fluo-3 AM) in iNBSC-derived sensory neurons; assay type: cell-based
T1 construct: endogenous in cells; host or cells: sensory neurons differentiated from human iNBSCs (WT and SCN9a-/- cultures)
T1 sequence (P56373 1-397): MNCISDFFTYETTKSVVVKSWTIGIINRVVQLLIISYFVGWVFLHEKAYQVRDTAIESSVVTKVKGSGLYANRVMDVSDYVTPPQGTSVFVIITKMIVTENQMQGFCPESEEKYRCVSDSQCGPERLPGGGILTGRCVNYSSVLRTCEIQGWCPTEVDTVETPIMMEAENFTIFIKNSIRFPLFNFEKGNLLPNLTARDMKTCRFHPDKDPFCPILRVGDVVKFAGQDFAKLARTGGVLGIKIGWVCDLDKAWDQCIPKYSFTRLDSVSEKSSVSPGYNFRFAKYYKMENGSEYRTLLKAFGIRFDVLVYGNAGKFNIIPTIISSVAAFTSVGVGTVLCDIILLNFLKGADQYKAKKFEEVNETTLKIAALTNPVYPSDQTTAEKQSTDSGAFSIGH
Method: Cell cultures were incubated in a solution containing the cell-permeable fluorescent Ca2+ indicator Fluo-3 AM (2 μM; F1242, Thermo Scientific™) and Cell Tracker Red CMTPX (1 μM; C34552, Thermo Scientific™) to delineate cell membranes. Dye loading was carried out in an incubator at 37° C., 5% CO2 for 30 min.
Imaging of fluorescently labeled cells was performed on a TCS SP5 microscope (Leica) equipped with a 20×(1 numerical aperture) water-immersion objective. Images (512×512 pixels) were acquired at 1000 Hz speed every 0.8-1.6 seconds with 0.5 μm per pixel resolution in the xy dimension, and 3-4 μm steps in the z dimension. Argon and HeNe-543 lasers were used to excite Fluo-3 AM and Cell Tracker Red CMTPX dyes, respectively. […] After recording baseline fluorescence for 2 minutes, α,β-methylene ATP was applied (30 μM in ACSF; COMPANY) for 2 minutes. […]
We obtained relative fluorescence changes (Fi/F0), where F0 is the fluorescence image formed by averaging the first 50 frames of the sequence, and F(i) represents each (i) frame of the recording. […]
We then studied global calcium activity by averaging fluorescence intensity in the whole image before and in response to stimulation with α,β-methylene ATP in WT−(n=3) and SCN9−/− (n=4) neuronal cultures.

pNBSCs = experiment: Culture of pNBSCs on Matrigel in absence of feeders with Notch-ligands; assay type: cell-based, mouse; settings: cultured on MG with DII4 and Jagged1 together, 500 ng/ml each
Method: a, Preparation of E8.5 stage embryos for isolation of pNBSCs. Representative microscopy pictures of an E8.5 stage embryo prior to dissection of neural tissue. […] Results are shown for two independent pNBSC clones and E13.5 stage derived RG-like SCs (n=3; t-test, **P<0.01, Mean with SEM). g, Culture of pNBSCs on inactivated MEFs (feeder) or Matrigel in presence or absence of Notch-ligands 500 ng/ml DII4 and 500 ng/ml Jagged-1. h, Regional identity of pNBSCs. mRNA expression of region specific markers was determined in three independent pNBSCs lines. Expression was normalized to whole E13.5 stage fetal brains. i, Flow cytometry data of a pNBSC line under maintenance and neural crest priming condition. pNBSCs were either cultured in CAP or CA+BMP4 for 5 days before levels of Ssea1 and P75 were determined by flow cytometry. j, Immunofluorescence stainings for serotonin on neuronal differentiation. pNBSCs were differentiated in presence of Purmorphamine for 3 days and matured for additional 2 weeks before stainings were performed; scale bar 50 μm. k, BF pictures of pNBSCs embedded as single cell suspension in MG after CNS- and NC-priming. pNBSCs were cultured in CSP for 6 days (upper panel) or CABF for 10 days (lower panel). […]

Row | Compound | rapid differentiation of pNBSCs in the absence of feeders (pNBSCs) | other results
1 | O=C(O)c1cc(C(=O)O)c(C(=O)N(Cc2cccc(Oc3ccccc3)c2)[C@H]2CCCc3ccccc32)cc1C(=O)O [A-317491] |  | α,β-Methylene-ATP-induced calcium flux (neuronal activity) in the presence of antagonist (P2RX3-receptors; 1 μM A-317491, stimulation with 30 μM α,β-methylene ATP, WT sensory neurons, compared to controls, t-test P<0.05): significantly reduced
2 | Nc1ncnc2c1ncn2[C@@H]1O[C@H](COP(=O)(O)CP(=O)(O)OP(=O)(O)O)[C@@H](O)[C@H]1O [α,β-Methylene-ATP] |  | neuronal activity by calcium flux measurements upon stimulation (P2RX3-receptors; 30 μM α,β-methylene ATP, WT iNBSC-derived sensory neurons, Fluo-3 AM fluorescence relative to baseline): robust increase of activity
3 | DII4: Notch-ligand | partially halted | 
4 | Jagged1: Notch-ligand | partially halted | 
